From patent US5216005A, “Immunosuppressive analogues and derivatives of succinylacetone” (priority 1990, dated 1993)

System: adjuvant induced arthritis
Experiment: adjuvant induced arthritis in rats, overall arthritis score; intraarticular right paw, per kg: succinylacetone 325 μg, methyl ester 150 μg, 4-acetyl-5-oxohexanoate 560 μg
Type: in vivo, rat

Work on `CC(=O)CC(=O)CCC(=O)O` [Succinylacetone, 4,6-dioxoheptanoic acid] yielded an overall arthritis score (Exp. I (treated from same day), day 14) of 0.6 ± 1.3, an overall arthritis score (Exp. I (treated from same day), day 16) of 0.8 ± 1.8 and an overall arthritis score (Exp. I (treated from same day), day 18) of 1.4 ± 2.6. It also gave an overall arthritis score (Exp. I (treated from same day), day 20) of 3 ± 5, an overall arthritis score (Exp. I (treated from same day), day 22) of 3.8 ± 5 and an overall arthritis score (Exp. I (treated from same day), day 24) of 4 ± 3.9. For the same compound, the overall arthritis score (Exp. I (treated from same day), day 26) was 5 ± 4.3, the overall arthritis score (Exp. II (treated from day 4), day 14) was 3.2 ± 3.8 and the overall arthritis score (Exp. II (treated from day 4), day 16) was 3.2 ± 3.8. The overall arthritis score (Exp. II (treated from day 4), day 18) was 4.8 ± 3.6, the overall arthritis score (Exp. II (treated from day 4), day 20) was 7 ± 2.3 and the overall arthritis score (Exp. II (treated from day 4), day 22) was 6.2 ± 2.4. The overall arthritis score (Exp. II (treated from day 4), day 24) was 6 ± 2.7, the overall arthritis score (Exp. II (treated from day 4), day 26) was 7.8 ± 3 and the overall arthritis score (Exp. III (treated from day 14), day 14) was 2.0 ± 3.9. For the same compound, the overall arthritis score (Exp. III (treated from day 14), day 16) was 2.0 ± 3.9, the overall arthritis score (Exp. III (treated from day 14), day 18) was 2.0 ± 2.9 and the overall arthritis score (Exp. III (treated from day 14), day 20) was 2.4 ± 2.9. For the same compound, the overall arthritis score (Exp. III (treated from day 14), day 22) was 4.0 ± 3.7, the overall arthritis score (Exp. III (treated from day 14), day 24) was 2.8 ± 2.8 and the overall arthritis score (Exp. III (treated from day 14), day 26) was 3.4 ± 2.7. The effect on arthritis (comparison of treatment schedules, in words) was “also effective when administered 14 days subsequent to injection”.
